Test [1] deals with T1, hVR1 (Homo sapiens, UniProt Q8NER1).
T1 construct: expressed in transfected cells; host or cells: CHO K1 cells (ECACC), stably transfected
Briefly: Functional test on VR1, FLIPR Ca2+ influx in transfected CHO K1 cells, capsaicin. The format is cell-based, human being. The following applies: capsaicin (Cap); includes values given in brackets after pAG; read-out: Ki (human being) [nM] Cap. An excerpt: In the process, the Ca^2+ influx is quantified in the FLIPR assay with the aid of a Ca^2+-sensitive dye (type Fluo-4, Molecular Probes Europe BV, Leiden, the Netherlands) in a fluorescent imaging plate reader (FLIPR, Molecular Devices, Sunnyvale, USA), as described hereinafter.
II. Functional Tests Carried Out on the Vanilloid Receptor (VR1)
The agonistic or antagonistic effect of the substances to be tested on the vanilloid receptor 1 (VR1) can also be determined using the following assay. In this assay, the influx of Ca^2+ through the channel is quantified with the aid of a Ca^2+-sensitive dye (type Fluo-4, Molecular Probes Europe BV, Leiden, the Netherlands) in a fluorescent imaging plate reader (FLIPR, Molecular Devices, Sunnyvale, USA).
Chinese hamster ovary cells (CHO K1 cells, European Collection of Cell Cultures (ECACC) United Kingdom) are stably transfected with the VR1 gene. For functional testing, these cells are plated out on poly-D-lysine-coated black 96-well plates having a clear base (BD Biosciences, Heidelberg, Germany) at a density of 25,000 cells/well. The cells are incubated overnight at 37° C. and 5% CO2 in a culture medium (Ham's F12 nutrient mixture, 10% by volume of FCS (foetal calf serum), 18 μg/ml of L-proline). The next day the cells are incubated with Fluo-4 (Fluo-4 2 μM, 0.01% by volume of Pluronic F127, Molecular Probes in HBSS (Hank's buffered saline solution), Gibco Invitrogen GmbH, Karlsruhe, Germany) for 30 minutes at 37° C. Subsequently, the plates are washed three times with HBSS buffer and after further incubation for 15 minutes at RT used for Ca^2+ measurement in a FLIPR assay. The Ca^2+-dependent fluorescence is measured before and after the addition of the substances to be tested (λex wavelength=488 nm, λem=540 nm). Quantification is carried out by measuring the highest fluorescence intensity (FC, fluorescence counts) over time.
The FLIPR protocol consists of 2 substance additions. First the compounds to be tested (10 μM) are pipetted onto the cells and the Ca^2+ influx is compared with the control (capsaicin 10 μM) (% activation based on the Ca^2+ signal after the addition of 10 μM of capsaicin). After 5 minutes' incubation, 100 nM of capsaicin are applied and the Ca^2+ influx is also determined.
Desensitising agonists and antagonists led to suppression of the Ca^2+ influx. The % inhibition is calculated compared to the maximum achievable inhibition with 10 μM of capsaicin.
Starting from the percentage displacement caused by different concentrations of the compounds to be tested of general formula I, IC50 inhibitory concentrations which cause a 50-per cent displacement of capsaicin were calculated. Ki values for the test substances were obtained by conversion by means of the Cheng-Prusoff equation (Cheng, Prusoff; Biochem. Pharmacol. 22, 3099-3108, 1973).
The affinity of the compounds according to the invention for the vanilloid receptor 1 (VR1/TRPV1 receptor) was determined as described hereinbefore (pharmacological methods I and II respectively).

Test [2] has as its target T1, hVR1. The experiment in a line: Functional test on human VR1, 45° C. stimulus. The format is cell-based, human being. The settings on record: for IC50: read-out: IC50 (human being) [nM], 45° C.

Molecules are shown by their SMILES.

T1 sequence (Q8NER1 whole entry): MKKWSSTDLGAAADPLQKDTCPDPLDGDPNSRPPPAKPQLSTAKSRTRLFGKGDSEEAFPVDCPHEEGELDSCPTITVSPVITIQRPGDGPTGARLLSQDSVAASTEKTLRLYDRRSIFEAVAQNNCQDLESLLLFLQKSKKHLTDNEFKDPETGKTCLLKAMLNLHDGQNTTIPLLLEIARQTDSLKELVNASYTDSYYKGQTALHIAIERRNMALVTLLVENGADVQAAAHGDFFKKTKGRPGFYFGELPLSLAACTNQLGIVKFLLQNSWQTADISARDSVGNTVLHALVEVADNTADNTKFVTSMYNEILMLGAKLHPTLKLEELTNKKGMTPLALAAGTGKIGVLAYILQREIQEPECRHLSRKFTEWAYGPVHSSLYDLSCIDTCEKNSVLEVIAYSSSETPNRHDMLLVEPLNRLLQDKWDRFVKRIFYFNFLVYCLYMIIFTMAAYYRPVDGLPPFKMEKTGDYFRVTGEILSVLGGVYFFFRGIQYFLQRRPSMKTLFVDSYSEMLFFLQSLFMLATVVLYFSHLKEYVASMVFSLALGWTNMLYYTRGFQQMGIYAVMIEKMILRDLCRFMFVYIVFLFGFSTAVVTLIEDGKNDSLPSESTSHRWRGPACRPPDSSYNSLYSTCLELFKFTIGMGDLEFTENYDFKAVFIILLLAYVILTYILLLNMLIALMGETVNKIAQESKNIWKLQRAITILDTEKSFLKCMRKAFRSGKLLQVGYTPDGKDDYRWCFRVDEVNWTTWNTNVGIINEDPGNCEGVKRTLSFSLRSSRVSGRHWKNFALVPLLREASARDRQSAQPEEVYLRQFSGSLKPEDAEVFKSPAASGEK

On to `CC(C(=O)NCc1cc(C(F)(F)F)nn1-c1cccc(Cl)c1)c1cccc2c1CCC2O` (stereo not shown) [Example 207, N-((1-(3-chlorophenyl)-3-(trifluoromethyl)-1H-pyrazol-5-yl)methyl)-2-(1-hydroxy-2,3-dihydro-1H-inden-4-yl)propanamide], for which the Ki (commonly a measure of affinity in units of concentration, obtained from inhibition or displacement) on hVR1 [1] turned out to be 2.4 nM. Also, the inhibition (as a rule, the relative decrease from the control value, in per cent) at 10 µM on hVR1 [2] (@ 10 μM, read-out: IC50 (human being), 45° C.: inhibition (as a percentage)) was 14%.
With `CC(C(=O)NCc1cc(C(F)(F)F)nn1-c1cccc(Cl)c1)c1cccc2c1CC(O)C2` (stereo not shown) [Example 208, N-((1-(3-chlorophenyl)-3-(trifluoromethyl)-1H-pyrazol-5-yl)methyl)-2-(2-hydroxy-2,3-dihydro-1H-inden-4-yl)propanamide], the Ki at hVR1 [1] was 62.6 nM. On hVR1 [2], the IC50 (usually the concentration at which inhibition is half-maximal) was 298 nM.
With `COc1ccc2cccc(C(C)C(=O)NCc3cc(C(F)(F)F)nn3-c3cccc(Cl)c3)c2c1` (stereo not shown) [Example 212, N-((1-(3-chlorophenyl)-3-(trifluoromethyl)-1H-pyrazol-5-yl)methyl)-2-(7-methoxynaphthalen-1-yl)propanamide], the Ki on hVR1 [1] stood at 8.3 nM. For the same compound, the IC50 on hVR1 [2] is 626 nM.
With `CC(C(=O)NCc1cc(C(F)(F)F)nn1-c1cccc(Cl)c1)c1cccc2cnc(Cl)cc12` (stereo not shown) [Example 213, 2-(3-chloroisoquinolin-5-yl)-N-((1-(3-chlorophenyl)-3-(trifluoromethyl)-1H-pyrazol-5-yl)methyl)propanamide], the Ki at hVR1 [1] came out at 0.07 nM. Also, the IC50 on hVR1 [2] was determined as 264 nM.
As to `CC(C)(C)c1cc(CNC(=O)Nc2cc(F)cc3[nH]ncc23)n(-c2ccccn2)n1` [Example 216, 1-((3-tert-butyl-1-(pyridin-2-yl)-1H-pyrazol-5-yl)methyl)-3-(6-fluoro-1H-indazol-4-yl)urea], at hVR1 [1], the Ki is 54 nM. Moreover, the IC50 at hVR1 [2] amounted to 2120 nM.

The values above are taken from patent publication US8334315B2, “Substituted aromatic carboxamide and urea derivatives as vanilloid receptor ligands” (Gruenenthal GmbH, priority 2009, dated 2012).
